Experimental data published in US5814600A, “Method and composition for treatment of insulin requiring mammals” (Amylin Pharmaceuticals Inc., priority 1994, dated 1998).
Entries after “also recorded” stand apart in the source; their conditions may differ. Where two headings read alike, the source gives them in different places.

Tests used:
[1] = system: rat soleus muscle; format: cell-based
Method: Male Harlan Sprague Dawley rats of approximately 200 g mass were used in order to maintain soleus muscle mass less than 40 mg. The animals were fasted for 4 hours prior to sacrifice by decapitation. The skin was stripped from the lower limb which was then pinned out on cork board. The tendo achilles was cut just above os […]. gastrocnemius reflected out from the posterior aspect of the tibia. M. soleus, a small […], 0.55 mm thick flat muscle on the bone surface of m. gastrocnemius was then stripped clear and the perimysium cleaned off using fine scissors and forceps. M. soleus was then split into equal parts using a blade passed antero-posteriorly through the belly of the muscle to obtain a total of 4 muscle strips from each animal. After dissecting the muscle from the animal, it was kept for a short period in physiological saline. The muscle was not held under tension, as reported in other methodologies since in our hands this had no demonstrable effect on the insulin-sensitivity of radioglucose incorporation into glycogen. Muscles were added to 50 mL Erlenmeyer flasks containing 10 mL of a pregassed Krebs-Ringer bicarbonate buffer containing (mM) NaCl 118.5; KCl 5.94; CaCl2 2.54; MgSO4 1.19; KH2 PO4 1.19; NaHCO3 25; glucose 5.5; and recombinant human insulin (Humulin-R, Eli Lilly, Ind.) and either synthetic rat (Bachem, Torrance, Calif. Lot# ZG485) or synthetic human amylin (Bachem, Torrance, Calif. Lot# ZH144) as detailed below. Methods used to determine the nature and purity of rat and human amylin included quantitative amino acid analysis, gas phase amino acid sequencing, reverse phase HPLC and fast-atom-bombardment mass spectrometry. […] Incorporation of mercury into rat amylin may be a feature of many commercially available batches that have already been used in published studies. Since the peptide was bioactive, its action in muscle was expected to at least qualitatively mimic that of true rat amylin. The mercuric method of cyclization was not used in the synthesis of human amylin, which is found by electrospray ionization mass spectrometry and atomic absorption spectroscopy to be mercury-free. Muscles were assigned to different flasks so that the four muscle pieces from each animal were evenly distributed among the different assay conditions. The incubation media were gassed by gently blowing carbogen (95% O2, 5% CO2) over the surface while it was continuously agitated at 37° C. in an oscillating water bath. pH of gassed media at 37° C. was verified as being between 7.1 and 7.4. After a half-hour preincubation, 0.5 μCi of [U-^14 C]-glucose was added to each flask for a further 60 minutes. Each muscle piece was then rapidly removed, trimmed of tendons, blotted, frozen in liquid N2, weighed and then stored at […] for subsequent determination of ^14 C-glycogen. The incubation medium was also frozen for subsequent analysis. The concentration of human amylin present in the medium at the end of the incubation was determined by radioimmunoassay in surfactant-containing buffer. For both human and rat amylin, the actual mass added to the incubation medium was determined by quantitative amino-acid analysis. Each frozen muscle specimen was placed in a vial with 1 mL 60% potassium hydroxide (wt/vol) and digested at 70° C. for 45 minutes under intermittent vigorous agitation. Dissolved glycogen was precipitated onto the walls of the vial by addition of 3 mL absolute ethanol and overnight cooling at -20° C. After centrifugation for 30 minutes at 2000 x-- g, the supernatant was gently aspirated, the glycogen was again washed with ethanol and centrifuged, the ethanol aspirated and the precipitate dried under vacuum. It was important to evaporate all ethanol to avoid quenching during scintillation counting. The remaining glycogen was redissolved in 1 mL water and 4 mL scintillation fluid and counted for ^14 C. […]

[2] = system: streptozotocin-diabetic rats; test: Liver glycogen in insulin-treated streptozotocin diabetic rats, daily s.c. amylin replacement; format: in vivo, rat
Method: There were 68 male Harlan Sprague Dawley rats (mass 301±3 g) in 8 treatment groups. Animals were housed at 22.7±0.8° C. in a 12:12 hour light:dark cycle (experiments being performed during the light cycle) and fed and watered ad libitum (Diet LM-485, Teklad, Madison, Wis.). The rats were sacrificed for harvesting of livers 4 to 5 hours into the light cycle.
Animals were injected with streptozotocin (Sigma Chemical Company, St Louis, Mo.: Sigma 50130) dissolved in water in a dose of 65 mg/kg into the lateral tail vein. […] Maintaining diabetic rats in this metabolic state optimizes survival. Following one week of established diabetes, animals received once daily s.c. injections of amylin vehicle (water for injection) for 5 days given at the time of the insulin injection.
These animals were treated identically to those in group 1 except that the daily subcutaneous injection contained 3 μg (n=5); 10 μg (n=12); 30 μg (n=5); 100 μg (n=5) or 300 μg (n=5) of rat amylin (Bachem lot# WG485^2/). The bioactivity of the peptide used in these experiments was first verified by bioassay, using inhibition of insulin-stimulated radioglucose incorporation into glycogen in the isolated stripped rat soleus muscle. […] The insulin dose in each of the groups of diabetic animals averaged 1.67 U/animal/day. There were no other observable differences in the required management of the different groups.
These animals were derived from the same stock and housed under the same conditions for the same time as those in groups 1-6, but were given no injections. 24 hours after the fifth daily injection of amylin or water (or an equivalent time after admission to the vivarium in the case of group 7 rats), the non-fasted rats were killed by decapitation and the livers immediately removed and frozen in liquid N2, weighed and stored for subsequent determination of glycogen concentration.
Whole livers were powdered while frozen. Approximately 200 mg of powder was further homogenized in 1.0 mL of 0.6M perchloric acid to denature enzymes. 200 μL of the homogenate was neutralized with 0.5 volumes of 1.0M KHCO3 in either of two acetate buffer solutions, one containing 2.0 mL of 200 mM acetate (pH4.8), the other containing the same but with 18.5 U/mL of amyloglucosidase (EC5 3.2.1.3, from Aspergillus nicer, Sigma A3423, Sigma Chemical Company, St Louis, Mo.) added. Following at least 20 minutes incubation at 23° C., the supernatants were assayed for glucose in an analyzer using D-glucose oxidase immobilized enzyme chemistry (Analyzer model 2300-STAT, YSI, Yellow Springs, Ohio). Purified rabbit liver glycogen (Sigma G8876) used as a standard indicated 98±4% recovery of dissolved glycogen and linearity within the range of observed liver glycogen concentrations (r=0.9994). All reagents were of analytical grade or better.
Statistical comparisons were by Student's t-test routines contained in the SYSTAT system (Systat, Evanston, Ill.). All results are reported as means ± standard error of the mean.

[3] = system: liver glucose output; details: rats; Molina et al. 1990, Koopmans et al. 1990; cited from earlier work

EC50 ([1]; 4 h): 6.2 nM
EC50 ([1]; [insulin] 0 nM (nominal), nominal amylin concentrations, read-out: Amylin dose response: EC50, Mean ± log SE (converted)): 12.2 ± 0.94 nM
EC50 ([1]; [insulin] 0.21 nM (nominal), nominal amylin concentrations, read-out: Amylin dose response: EC50, Mean ± log SE (converted)): 10.3 ± 0.48 nM
EC50 ([1]; [insulin] 0.71 nM (nominal), nominal amylin concentrations, read-out: Amylin dose response: EC50, Mean ± log SE (converted)): 8.24 ± 0.24 nM
EC50 ([1]; [insulin] 2.1 nM (nominal), nominal amylin concentrations, read-out: Amylin dose response: EC50, Mean ± log SE (converted)): 10.4 ± 0.16 nM
EC50 ([1]; [insulin] 7.1 nM (nominal), nominal amylin concentrations, read-out: Amylin dose response: EC50, Mean ± log SE (converted)): 8.69 ± 0.13 nM
EC50 ([1]; [insulin] 71 nM (nominal), nominal amylin concentrations, read-out: Amylin dose response: EC50, Mean ± log SE (converted)): 11.93 ± 0.11 nM
SMILES: CC(C)C[C@H](NC(=O)[C@H](CC(N)=O)NC(=O)[C@H](CC(N)=O)NC(=O)[C@H](CO)NC(=O)[C@H](CO)NC(=O)[C@H](CCCNC(=N)N)NC(=O)[C@@H](NC(=O)[C@H](CC(C)C)NC(=O)[C@H](Cc1ccccc1)NC(=O)[C@H](CC(N)=O)NC(=O)[C@H](C)NC(=O)[C@H](CC(C)C)NC(=O)[C@H](CCCNC(=N)N)NC(=O)[C@H](CCC(N)=O)NC(=O)[C@@H](NC(=O)[C@H](C)NC(=O)[C@@H]1CSSC[C@H](NC(=O)[C@@H](N)CCCCN)C(=O)N[C@@H](CC(N)=O)C(=O)N[C@@H]([C@@H](C)O)C(=O)N[C@@H](C)C(=O)N[C@@H]([C@@H](C)O)C(=O)N1)[C@@H](C)O)C(C)C)C(=O)NCC(=O)N1CCC[C@H]1C(=O)N[C@H](C(=O)N[C@@H](CC(C)C)C(=O)N1CCC[C@H]1C(=O)N1CCC[C@H]1C(=O)N[C@H](C(=O)N[C@@H](CC(N)=O)C(=O)N[C@H](C(=O)NCC(=O)N[C@@H](CO)C(=O)N[C@@H](CC(N)=O)C(=O)N[C@H](C(=O)N[C@@H](Cc1ccc(O)cc1)C(N)=O)[C@@H](C)O)C(C)C)[C@@H](C)O)C(C)C [rat amylin]
Amylin dose response: Maximal response, Mean ± SEM ([1]; [insulin] 0 nM (nominal)): 0.85 ± 0.17 μmol/g wet tissue/hr
Amylin dose response: Maximal response, Mean ± SEM ([1]; [insulin] 0.21 nM (nominal)): 1.26 ± 0.18 μmol/g wet tissue/hr
Amylin dose response: Maximal response, Mean ± SEM ([1]; [insulin] 0.71 nM (nominal)): 2.11 ± 0.18 μmol/g wet tissue/hr
Amylin dose response: Maximal response, Mean ± SEM ([1]; [insulin] 2.1 nM (nominal)): 2.94 ± 0.18 μmol/g wet tissue/hr
Amylin dose response: Maximal response, Mean ± SEM ([1]; [insulin] 7.1 nM (nominal)): 3.56 ± 0.19 μmol/g wet tissue/hr
Amylin dose response: Maximal response, Mean ± SEM ([1]; [insulin] 71 nM (nominal)): 4.07 ± 0.18 μmol/g wet tissue/hr
mode of action on the insulin response in soleus muscle ([1]; from insulin/amylin dose response matrix): noncompetitive, functional antagonist to insulin
liver glycogen versus insulin alone ([2]; amylin 3 μg/day plus insulin): did not measurably increase glycogen levels
liver glycogen restoration towards normal ([2]; amylin 300 μg/day plus insulin): did not measurably restore liver glycogen towards normal
liver glycogen concentration versus normal animals ([2]; amylin 10, 30 and 100 μg per day plus insulin): not significantly different from that in normal animals
liver glycogen versus insulin-only therapy ([2]; amylin 10, 30 and 100 μg/day s.c. for 5 days plus insulin): Significant increases over insulin-only therapy; also recorded: dose-dependent increase in liver glycogen concentration above that in rats replaced with insulin alone
restoration of liver glycogen ([2]; five consecutive daily subcutaneous injections, insulin-treated STZ diabetic rats): dose-dependently restored liver glycogen to normal levels
effect on insulin-mediated suppression of liver glucose output [3]: reverses insulin-mediated suppression of liver glucose output
